The nature of one data set: Solubility in water. In kind it is physicochemical.
Data set [1] concerns Src phosphorylation in PC3-Etk cells. Description: Western blot of Src phosphorylation in intact cells. In kind it is cell-based, human. The settings on record: 5 μM and 10 μM, 24 h. Here is the method: Western blotting was performed as described previously. Proteins were detected using the following antibodies: β-actin (Sigma-Aldrich, Saint Louis, MO), Etk (Santa Cruz Inc., Santa Cruz, CA), pEtk; Src, pSrc; Stat3, pStat3. For phospho-Etk, cells were pre-treated with 100 μM pervanadate for 15 min before harvest.
Figure 4 Inhibition of cell signaling in PC3 cells following treatment with CTA095. Cells were grown in 10 mm plate to 50% confluence and treated with CTA095. Cells were harvested after 24 h. pEtk, Etk, pSrc, Src, pStat3, Stat3, pAkt and Akt levels were measured using the corresponding antibodies by Western blot. One of three similar experiments depicted.

The subject of another data set is PC3 cells. Description: MTT growth inhibition assay. In kind it is cell-based, human. Here is the method: (§1) Cells were seeded in 96-well plates and cultured overnight, followed by treatment with 0.1% DMSO, as the vehicle control, and CTA095, at the indicated concentrations for 72 h. Growth inhibition was measured using a 3-(4,5-Dimethylthiazol-2-yl)-2,5-diphenyltetrazolium bromide (MTT) assay (Roche Diagnostic, Mannheim, Germany).
(§2) Figure 5 Growth Inhibition of CTA095 to LNCAP, CWR22Rv1, PC3 prostate cancer and normal prostate (RWPE1) cells. Cells were seeded at 5,000 cells/well in 96-well plate overnight and treated with CTA095 at the indicated concentrations. The cell viability was measured using MTT assay after 72 h. dots, mean; bars, standard deviation, n = 3.
Figure 9 CTA095 as a chemo sensitizer. Growth Inhibition of CTA095 and in combination with 10 μM chloroquine (CQ), or 2 ng/ml paclitaxel (PTX) to PC3 human prostate cancer cells. Cells were seeded at 5,000 cells/well in 96-well plate overnight and pretreated with the corresponding co-treatments for 1h, then treated with 2.5 μM CTA095. The cell viability was measured using MTT assay after 72 h. Columns, mean; bars, standard deviation, n = 3.

A further data set has as its system CWR22Rv1 cells. Briefly: MTT growth inhibition assay. In kind it is cell-based. The settings on record: Homo sapiens, 72 h. Here is the method:
as §1, §2

A further data set concerns RWPE1 cells. Description: MTT growth inhibition assay. In kind it is cell-based. The settings on record: Homo sapiens, RWPE-1, RWPE1 normal prostate cells, 72 h. The procedure: as §1, §2
Data set [2] addresses T1, Etk (Homo sapiens, UniProt P51813).
T1 construct: purchased Millipore Inc (Dundee, UK)
T1 sequence (P51813 1-675): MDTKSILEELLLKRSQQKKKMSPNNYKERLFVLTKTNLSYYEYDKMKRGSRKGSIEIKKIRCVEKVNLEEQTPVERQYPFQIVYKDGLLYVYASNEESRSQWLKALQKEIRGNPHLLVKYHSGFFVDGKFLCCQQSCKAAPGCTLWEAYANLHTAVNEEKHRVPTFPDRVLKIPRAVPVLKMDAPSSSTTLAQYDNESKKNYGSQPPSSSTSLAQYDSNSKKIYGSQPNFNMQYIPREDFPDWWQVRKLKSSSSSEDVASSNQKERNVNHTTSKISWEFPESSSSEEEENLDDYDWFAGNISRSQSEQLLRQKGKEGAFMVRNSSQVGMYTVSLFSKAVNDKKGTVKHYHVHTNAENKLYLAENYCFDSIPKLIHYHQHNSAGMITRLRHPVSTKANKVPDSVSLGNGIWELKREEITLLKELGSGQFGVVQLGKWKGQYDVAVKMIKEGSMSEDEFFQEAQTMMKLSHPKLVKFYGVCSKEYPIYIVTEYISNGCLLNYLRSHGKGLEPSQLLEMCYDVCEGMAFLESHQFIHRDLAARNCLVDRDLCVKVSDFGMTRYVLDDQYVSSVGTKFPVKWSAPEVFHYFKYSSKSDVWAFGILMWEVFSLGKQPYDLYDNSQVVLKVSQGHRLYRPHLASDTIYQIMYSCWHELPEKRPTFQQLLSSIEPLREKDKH
Description: Etk autophosphorylation assay (in vitro kinase assay). It counts as biochemical. The settings on record: purified Etk, 33P-ATP, 30 min. Here is the method:
Etk autophosphorylation activity was measured by an in vitro kinase assay. Briefly, purified Etk (100 ng) was mixed with CTA095 in the kinase assay buffer (20 mM Hepes pH 7.55, 10 mM MgCl2, 10 mM MnCl2, 1 mM DTT, 500 μM Na3VO4). The cold ATP (5 µM) and hot r-^33P-ATP (5 µCi) were added to the mixture and the kinase reaction was performed at 30°C for 30 min. The reactions were terminated with a 4X SDS-PAGE sample buffer, and then loaded onto an 8% SDS-polyacrylamide gel for electrophoresis. The gel was vacuum dried and the ETK auto kinase activity was analyzed with a phosphoimager (Biorad).
The Btk family of non-receptor tyrosine kinases is characterized by the presence of an autophosphorylation site within the non-catalytic Src homology 3 (SH3) domain. Thus, it was also important to determine the ability of CTA095 to inhibit Etk autophosphorylation. Therefore, an in vitro Etk autophosphorylation assay was established in which purified Etk was mixed with CTA095 in the presence of ^33P-ATP. After 30 min, the reaction was terminated, and the samples were loaded onto an SDS-polyacrylamide gel for electrophoresis. After drying, the gel was analyzed with a phosphoimager.

Data set [3] concerns the target T1, Etk. Description: Kinase inhibition assay (TLC, 33P-ATP). It counts as biochemical. The settings on record: for pIC50: Etk. The procedure:
(§3) Kinase inhibition was measured using thin-layer-chromatography (TLC). Briefly, purified kinases (20 nM), the corresponding substrate (500 µM, TSFYGRH for Etk, YIYGSFK for the other kinases), and CTA095 (0–10 µM) were incubated in a kinase reaction (100 mM Hepes, pH 7.4, 10 mM MnCl2, 10 mM MgCl2, 1 mM DTT) for 5 min, and the reaction was started by adding 5 μCi ^33P-labeled ATP. The reaction (10 µl) was incubated at room temperature for 1 h and was stopped by adding 10 μL H3PO4. The radioactivity of the peptide substrate was analyzed using TLC as previously described.
(§4) Having isolated a small molecule that inhibits Etk, the next logical step was to determine its specificity for this enzyme. To accomplish this, purified Etk, Btk, Src and Yes were incubated in a kinase reaction buffer with CTA095 (0–1 μM) in the presence of ^33P-labeled ATP and a peptide (YIYGSFK), previously shown to be an excellent substrate for both BTK and Src family kinases. The kinase activity was measured using TLC technique.

The target in another data set is T2, Src (Homo sapiens, UniProt P12931).
T2 construct: purchased Millipore Inc (Dundee, UK)
T2 sequence (P12931 whole entry): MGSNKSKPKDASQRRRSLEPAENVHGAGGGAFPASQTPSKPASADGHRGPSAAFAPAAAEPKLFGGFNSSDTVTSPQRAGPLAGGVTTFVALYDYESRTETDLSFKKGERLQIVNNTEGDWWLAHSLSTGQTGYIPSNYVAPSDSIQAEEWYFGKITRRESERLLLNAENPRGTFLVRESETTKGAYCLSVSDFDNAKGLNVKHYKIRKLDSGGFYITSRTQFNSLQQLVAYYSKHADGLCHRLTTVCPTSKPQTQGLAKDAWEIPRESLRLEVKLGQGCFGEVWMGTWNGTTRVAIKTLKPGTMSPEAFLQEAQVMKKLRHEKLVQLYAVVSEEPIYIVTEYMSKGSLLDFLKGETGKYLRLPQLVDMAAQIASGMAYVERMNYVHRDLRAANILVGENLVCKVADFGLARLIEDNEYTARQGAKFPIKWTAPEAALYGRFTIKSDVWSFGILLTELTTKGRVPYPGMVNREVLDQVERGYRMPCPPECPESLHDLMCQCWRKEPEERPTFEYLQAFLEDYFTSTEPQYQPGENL
Description: Kinase inhibition assay (TLC, 33P-ATP). It counts as biochemical. The procedure:
as §3, §4

A further data set addresses T3, Yes (Homo sapiens, UniProt P07947).
T3 construct: purchased Millipore Inc (Dundee, UK)
Briefly: Kinase inhibition assay (TLC, 33P-ATP). It counts as biochemical. The procedure: as §3, §4

pIC50: −log10 of the molar value. Bounds are passed on as bounds.

T3 sequence (P07947 whole entry): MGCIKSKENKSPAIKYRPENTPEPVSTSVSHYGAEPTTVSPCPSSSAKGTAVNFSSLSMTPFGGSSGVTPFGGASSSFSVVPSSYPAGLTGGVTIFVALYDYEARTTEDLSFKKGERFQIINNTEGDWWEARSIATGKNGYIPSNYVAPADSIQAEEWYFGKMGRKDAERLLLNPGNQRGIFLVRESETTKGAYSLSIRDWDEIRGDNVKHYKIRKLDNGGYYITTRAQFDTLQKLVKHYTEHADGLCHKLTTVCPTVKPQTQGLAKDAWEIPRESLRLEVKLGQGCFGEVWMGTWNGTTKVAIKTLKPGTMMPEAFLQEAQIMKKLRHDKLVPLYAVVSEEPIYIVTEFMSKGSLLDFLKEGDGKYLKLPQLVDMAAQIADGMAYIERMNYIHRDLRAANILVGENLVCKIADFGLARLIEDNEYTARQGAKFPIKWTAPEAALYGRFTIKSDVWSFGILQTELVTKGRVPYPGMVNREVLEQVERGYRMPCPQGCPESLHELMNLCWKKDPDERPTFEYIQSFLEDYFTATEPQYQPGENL

For the compound `O=c1[nH]c2cc3nc(-c4ccc5oc6ccccc6c5c4)n(CCCN4CCCCC4)c3cc2nc1-c1ccccc1` [CTA095, 2-(dibenzo[b,d]furan-2-yl)-7-phenyl-1-(3-(piperidin-1-yl)propyl)-1H-imidazo[4,5-g]quinoxalin-6(5H)-one], the solubility in water entry in the data set “Solubility in water” is “highly insoluble in water”. In addition, the Src phosphorylation entry in data set [1] is given as “significantly inhibited”. In addition, the pIC50 is 5.35 in the data set on PC3 cells (Homo sapiens, PC-3, PC3, MTT, 72 h); 5.38 in the data set with CWR22Rv1 cells; 5.10 in the data set on RWPE1 cells; 7.22 against Etk [3] (TLC assay); ~7.22 at Etk [3] (TLC, peptide YIYGSFK, 33P-ATP); 6.92 on Src (TLC assay). The pIC50 against Src (TLC, peptide YIYGSFK, 33P-ATP) is ~6.92; at Yes it was < 5.00. Moreover, in the data set on PC3 cells (PC3, 2.5 μM CTA095 + CQ 10 μM, MTT, 72 h), the “growth inhibition in combination with chloroquine (CQ)” value is “synergistic effect”. For the same compound, in the data set on PC3 cells (PC3, 2.5 μM CTA095 + PTX 2 ng/ml, MTT, 72 h), the “growth inhibition in combination with paclitaxel (PTX)” value was “synergistic effect”. Moreover, the “combination with autophagy inducer RPM” value in the data set with PC3 cells (prostate cancer cells, co-treatment with rapamycin (RPM)) was “synergizes”. For the same compound, the Etk autophosphorylation result at Etk [2] is recorded as “inhibit Etk autophosphorylation in a concentration dependent manner”. On Etk [3] (compound 1 μM, Etk 20 nM, compared with other CT compounds), the Etk inhibition entry is “significant Etk inhibition”.

For the origin of these results see paper PMC3744530, “CTA095, a Novel Etk and Src Dual Inhibitor, Induces Apoptosis in Prostate Cancer Cells and Overcomes Resistance to Src Inhibitors” (PLoS ONE, 2013).
